{
  "source": "patent US12472180B2",
  "about": "“Combinations for treatment of NAFLD/NASH and related diseases” (Pfizer Inc., priority 2020, dated 2025)",
  "key": {"[1]": {"tested_on": "Western diet fed Sprague Dawley rats", "experiment": "Plasma triglycerides (fed and fasted) in Western diet fed Sprague Dawley rats", "format": "in vivo, rat", "settings": "4 hour fast", "experimental": "(§1) A randomized, vehicle-controlled, 8-parallel arm study was conducted in male Sprague-Dawley rats (Charles River (Boston, MA)) to obtain circulating and hepatic TG levels. Standard laboratory conditions were used to house 96 rats (˜200 g); they were double housed and kept under 12:12-hour reverse light-dark schedule (lights off at 8:00 AM). Rats were randomized into chow or Western diet groups and dose groups upon arrival and were given a 14-day lead-in period on either standard rat chow or Western diet prior to the start of the study. Standard Laboratory Rodent chow diet, 5053, was from LabDiet (PMI, St Louis, Missouri). Western Diet, D12079Bi, was from Research Diets (New Brunswick, NJ).\n(§2) For these studies, vehicle was prepared to make a 0.5% (wt/volume) of methyl cellulose (MC, Sigma Aldrich; 274429) in deionized water.\nFed plasma analytes: Blood for determining fed plasma TG concentrations was collected 2 hours post dose (2 hours into the dark cycle) via lateral tail vein, transferred to BD Microtainer tubes coated with dipotassium ethylenediaminetetraacetic acid (K2EDTA) (PN365974), and centrifuged at 4° C. The resulting plasma samples were then analyzed on a Siemens Chemistry XPT clinical analyzer (Malven, PA) using Siemens triglycerides_2 assay reagents (ref 10335892).\nFasted plasma analytes: Blood for determining fasted plasma TG was collected after a 4 hour fast, 2 hours post-dose (2 hours into the dark cycle) via lateral tail vein, transferred to BD Microtainer tubes coated with K2EDTA (PN365974), and centrifuged at 4° C. The resulting plasma samples were then analyzed on a Siemens Chemistry XPT clinical analyzer (Malven, PA) using Siemens triglycerides 2 assay reagents (ref 10335892)."}, "[2]": {"tested_on": "Western diet fed Sprague Dawley rats", "experiment": "Hepatic triglyceride (steatosis) in Western diet fed rats", "format": "in vivo, rat", "settings": "or both, Day 28", "experimental": "as §1, §2\n(§3) On the last day of the study (Day 28), rats were sacrificed for tissue collection after a 4 hour fast, 2 hours post-dose: two hours post-dose, blood for determining plasma analytes was collected via lateral tail vein and then the animals were sacrificed by CO2 asphyxiation. Blood was transferred to BD Microtainer tubes coated with K2EDTA (PN365974), centrifuged at 4° C. and the plasma transferred to a 96-well microtitre plate and stored at −20° C. Livers were rapidly removed, freeze-clamped in a Wollenberg clamp pre-cooled in liquid N2 individually wrapped in aluminum foil and subsequently stored at −80° C.\nTissue pulverization: Frozen livers were rapidly pulverized on an aluminum block cooled in liquid N2, ensuring the tissue remained frozen throughout the pulverization. The pulverized tissues were transferred and stored in 7 mL polypropylene conical tubes at −80° C. until analysis.\nExtraction for hepatic triglyceride: Approximately 50 to 100 mg of pulverized tissue was added to a 2 mL lysing matrix D tube (MP Bio) containing 800 μL ice cold 1:1 CHCl3:MEOH. Samples were immediately extracted at 4° C. using Qiagen Tissue Lyser II (Qiagen Cat No. 85300) for 4 minutes at 30 Hz. The homogenate was then transferred to 13×100 mm glass tubes and placed on ice. The lysis tubes were then rinsed with 800 μL of 1:1 CHCl3:MeOH, vortexed for 30 seconds and added to the 13×100 mm glass tubes. While on ice, 2.4 ml of 100% CHCl3 was added to all glass vials to bring the ratio of CHCl3:MeOH to 4:2. Samples were then placed in the −20° C. freezer overnight. On the following day, 1.75 mL 1M KCl H2O was added to bring the ratio to 4:2:1.75 ratio CHCl3:MeOH:H2O. Samples were then vortexed for 30 seconds and centrifuged at 1500 rpm×15 min., at 4° C. After centrifugation, the organic phase was transferred to a fresh 13×100 mm extraction tube, dried down at 37° C. under N2 and re-suspended in 750 μL CHCl3. […]"}, "SREBP-1": {"tested_on": "SREBP-1", "experiment": "Nuclear SREBP-1 localization in liver of Western diet fed rats (Western blot)", "format": "in vivo, rat", "settings": "high dose monotherapy (A 10 mg/kg QD; D 30 mg/kg BID); pooled liver samples", "experimental": "as §1, with “NJ). […]” for “NJ).”\nNuclear and Membrane fractions were prepared by ultracentrifugation using standard methods from a portion of the pulverized liver samples, that were pooled per treatment group. Samples from the nuclear extract and the membrane fractions were analyzed by Western blotting for SREBP1. […] Nuclear SREBP1 levels were quantified using relative units and normalized to Histone 2B to control for sample loss during the nuclear fractionation and gel loading."}, "[3]": {"tested_on": "ACC1, FASN, SCD1, PCSK9 and SREBP-1c", "experiment": "Hepatic lipogenic gene expression in Western diet fed rats (qPCR)", "format": "in vivo, rat", "settings": "Compound A: ACC1, FASN (high dose only), SCD, but not PCSK9 and SREBP1", "experimental": "as §1\nas §3, with “Livers were rapidly removed, freeze-clamped in a Wollenberg clamp pre-cooled in liquid N2 individually wrapped in aluminum foil and subsequently stored at −80° C.” left out\nAnother portion of the pulverized liver was processed and analyzed for lipogenic gene expression. Rat taqman probes against ACC1, FASN, SCD1, PCSK9 and SREBP-1c were all assessed using Actb as housekeeping gene on qPCR."}, "αSMA and COL1A1": {"tested_on": "αSMA and COL1A1", "experiment": "Hepatic fibrogenesis gene expression in CDAHFD fed rats (qPCR)", "format": "in vivo, rat", "settings": "A 5 mg/kg, D 30 mg/kg twice daily, 6 weeks", "excerpt": "Standard laboratory conditions were used to house 60 rats (˜200 g); they were double housed and kept under 12:12-hour reverse light-dark schedule (lights off at 8:00 AM). Rats were fed choline deficient and high fat diet (CDAHFD) beginning 6-weeks prior to initiation of the study. […] Animals (n=12) remaining on normal chow throughout the study and administered twice-daily vehicle were used as a control group. Blood samples were collected prior to starting compound administration and 3- and 6-week post compound administration for the assessment of circulating markers. Shearwave elastography (Aixplorer Ultimate imager, Supersoinc imagine) measurements were made at Week −3, Week 0 (prior to 1st dose), Week 3 and Week 6 to assess inflammation and fibrosis progression over time. Histology was assessed following 6-weeks of drug administration which corresponded to 12 weeks on the CDAHFD. Results are provided as an average of animals per each dosing group.\nFollowing the 12-weeks on CDAHFD, the animals were sacrificed by CO2 asphyxiation. The right lateral, medial and left lateral lobes of the liver were harvested. Sections were taken from the left lateral, right medial and right lateral lobes and fixed in formalin and processed to paraffin blocks per animal. One section of left lateral lobe per animal was cryopreserved in optimal cutting temperature (OCT) compound. The remainder of the liver from each animal was frozen and rapidly pulverized on an aluminum block cooled in liquid N2, ensuring the tissue remained frozen throughout the pulverization. The pulverized tissue was transferred and stored at −80° C. until analysis. A portion of the pulverized liver sample from each animal was processed and analyzed for gene expression markers of fibrogenesis. Rat taqman probes against αSMA and COL1A1 were all assessed using Actb as housekeeping gene on qPCR."}, "[4]": {"experiment": "Thermodynamic stability of crystalline forms versus water activity", "format": "physicochemical", "settings": "ambient temperature; about 0.2 = 20% RH"}, "[5]": {"settings": "high dose: A 10 mg/kg QD, D 30 mg/kg BID"}, "[6]": {"settings": "low dose: A 1 mg/kg QD, D 5 mg/kg BID"}},
  "note": "Where a name gives a salt, the structure may show the parent alone.",
  "data": [
    {"smiles": "COc1cc(C(=O)N2CCC3(CC2)CC(=O)c2c(cnn2C(C)C)C3)cc(-c2ccc(C(=O)O)cc2)n1", "note": "[Compound A, 4-(4-(1-isopropyl-7-oxo-1,4,6,7-tetrahydrospiro[indazole-5,4′-piperidine]-1′-carbonyl)-6-methoxypyridin-2-yl)benzoic acid]", "values": [
      {"measurement": "increase in fasted plasma TG, relative to vehicle administered Western diet fed rats", "setting": "[1]; high dose: Compound A 10 mg/kg QD monotherapy", "value": 1.7, "unit": "fold"},
      {"measurement": "increase in fasted plasma TG, relative to vehicle administered Western diet fed rats", "setting": "[1]; low dose: Compound A 1 mg/kg QD monotherapy", "value": 2.4, "unit": "fold"},
      {"measurement": "reduction in steatosis (hepatic triglyceride), relative to vehicle administered Western diet fed rats", "setting": "[2]; [5]", "value": 53, "unit": "%"},
      {"measurement": "reduction in steatosis (hepatic triglyceride), relative to vehicle administered Western diet fed rats", "setting": "[2]; [6]", "value": 36, "unit": "%"},
      {"measurement": "nuclear SREBP-1 localization relative to vehicle treated Western diet fed rats", "setting": "SREBP-1", "value": "increased nuclear localization of SREBP-1"},
      {"measurement": "hepatic lipogenic gene expression (ACC1, FASN, SCD1, SREBP-1c, PCSK9) relative to Western diet fed vehicle treated animals", "setting": "[3]", "value": "trended to further increase"},
      {"measurement": "hepatic COL1A1 gene expression", "setting": "αSMA and COL1A1", "value": "reduced hepatic αSMA and COL1A1 gene expression"},
      {"measurement": "hepatic αSMA gene expression", "setting": "αSMA and COL1A1", "value": "reduced hepatic αSMA and COL1A1 gene expression"}
    ]},
    {"smiles": "CCOc1cccnc1Oc1cncc(-c2ncc(C(=O)N[C@H]3CCOC3)cn2)c1", "note": "[Compound D, (S)-2-(5-((3-ethoxypyridin-2-yl)oxy)pyridin-3-yl)-N-(tetrahydrofuran-3-yl)pyrimidine-5-carboxamide]", "values": [
      {"measurement": "reduction of fasted plasma TG, relative to vehicle administered Western diet fed rats", "setting": "[1]; high dose: Compound D 30 mg/kg BID monotherapy", "value": 35, "unit": "%"},
      {"measurement": "reduction of fasted plasma TG, relative to vehicle administered Western diet fed rats", "setting": "[1]; low dose: Compound D 5 mg/kg BID monotherapy", "value": 20, "unit": "%"},
      {"measurement": "reduction in steatosis (hepatic triglyceride), relative to vehicle administered Western diet fed rats", "setting": "[2]; [5]", "value": 30, "unit": "%"},
      {"measurement": "reduction in steatosis (hepatic triglyceride), relative to vehicle administered Western diet fed rats", "setting": "[2]; [6]", "value": 25, "unit": "%"},
      {"measurement": "nuclear SREBP-1 localization relative to vehicle treated Western diet fed rats", "setting": "SREBP-1", "value": "reduced SREBP-1 nuclear localization"},
      {"measurement": "hepatic lipogenic gene expression (ACC1, FASN, SCD1, SREBP-1c, PCSK9) relative to Western diet fed vehicle treated animals", "setting": "[3]", "value": "decreased expression of all of the lipogenic genes"},
      {"measurement": "hepatic COL1A1 gene expression", "setting": "αSMA and COL1A1", "value": "reduced hepatic αSMA and COL1A1 gene expression"},
      {"measurement": "hepatic αSMA gene expression", "setting": "αSMA and COL1A1", "value": "reduced hepatic αSMA and COL1A1 gene expression"}
    ]},
    {"smiles": "COc1cc(C(=O)N2CCC3(CC2)CC(=O)c2c(cnn2C(C)C)C3)cc(-c2ccc(C(=O)O)cc2)n1", "note": "[Form 1 of Compound A, 4-(4-(1-isopropyl-7-oxo-1,4,6,7-tetrahydrospiro[indazole-5,4′-piperidine]-1′-carbonyl)-6-methoxypyridin-2-yl)benzoic acid anhydrous tris salt]", "values": [
      {"measurement": "water activity at which the form is thermodynamically stable", "setting": "[4]", "value": "< 0.2"}
    ]},
    {"smiles": "COc1cc(C(=O)N2CCC3(CC2)CC(=O)c2c(cnn2C(C)C)C3)cc(-c2ccc(C(=O)O)cc2)n1", "note": "[Form 2 of Compound A]", "values": [
      {"measurement": "water activity at which the form is thermodynamically stable", "setting": "[4]", "value": "> 0.2"}
    ]}
  ]
}
